In assay [1] the target is Insulin-like growth factor 1 receptor (Homo sapiens, UniProt P08069). The assay is described as follows: Selectivity interaction (KinomeScan (DiscoverX)) EUB0000695a IGF1R. The following applies: at 100 nM.
The target in assay [2] is T1, Mitogen-activated protein kinase kinase kinase 5 (Homo sapiens) (UniProt Q99683).
T1 sequence (whole entry): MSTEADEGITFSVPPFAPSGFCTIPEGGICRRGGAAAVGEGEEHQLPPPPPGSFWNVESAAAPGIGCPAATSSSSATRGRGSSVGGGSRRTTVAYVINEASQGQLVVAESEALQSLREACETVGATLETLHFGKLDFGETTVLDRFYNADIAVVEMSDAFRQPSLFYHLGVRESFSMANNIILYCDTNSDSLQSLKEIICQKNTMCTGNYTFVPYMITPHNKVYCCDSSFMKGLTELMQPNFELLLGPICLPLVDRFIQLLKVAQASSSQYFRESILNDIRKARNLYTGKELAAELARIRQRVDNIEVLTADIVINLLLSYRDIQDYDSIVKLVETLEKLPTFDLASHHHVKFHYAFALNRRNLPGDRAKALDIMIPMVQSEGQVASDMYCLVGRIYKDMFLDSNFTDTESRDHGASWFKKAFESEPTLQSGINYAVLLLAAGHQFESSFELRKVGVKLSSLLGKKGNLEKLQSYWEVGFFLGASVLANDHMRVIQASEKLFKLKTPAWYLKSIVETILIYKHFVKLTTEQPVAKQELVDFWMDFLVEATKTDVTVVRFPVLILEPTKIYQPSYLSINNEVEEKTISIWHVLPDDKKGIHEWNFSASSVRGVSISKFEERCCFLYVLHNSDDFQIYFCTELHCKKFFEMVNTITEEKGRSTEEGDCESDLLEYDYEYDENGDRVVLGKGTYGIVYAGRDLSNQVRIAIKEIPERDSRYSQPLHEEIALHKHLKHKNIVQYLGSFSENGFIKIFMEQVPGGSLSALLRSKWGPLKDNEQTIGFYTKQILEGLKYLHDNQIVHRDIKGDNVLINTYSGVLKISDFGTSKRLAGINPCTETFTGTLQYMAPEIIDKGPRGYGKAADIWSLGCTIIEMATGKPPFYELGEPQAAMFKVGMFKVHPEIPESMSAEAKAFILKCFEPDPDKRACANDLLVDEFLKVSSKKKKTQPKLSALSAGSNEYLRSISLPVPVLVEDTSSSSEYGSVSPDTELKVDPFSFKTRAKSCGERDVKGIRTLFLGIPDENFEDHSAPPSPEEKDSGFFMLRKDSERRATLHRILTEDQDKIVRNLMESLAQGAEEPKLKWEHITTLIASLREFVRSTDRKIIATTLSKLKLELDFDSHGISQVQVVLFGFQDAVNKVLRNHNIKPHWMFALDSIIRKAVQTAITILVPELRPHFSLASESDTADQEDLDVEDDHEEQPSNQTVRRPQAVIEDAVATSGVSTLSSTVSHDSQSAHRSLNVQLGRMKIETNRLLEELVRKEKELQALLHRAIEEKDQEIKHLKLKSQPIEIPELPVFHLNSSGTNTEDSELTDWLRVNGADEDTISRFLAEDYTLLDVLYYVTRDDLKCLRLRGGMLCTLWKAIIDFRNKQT
The following applies: at 10 µM.

The target in assay [3] is Ribosomal protein S6 kinase alpha-3 (Homo sapiens, UniProt P51812). The following applies: at 10 µM.
Chain of Ribosomal protein S6 kinase alpha-3 (P51812 whole entry): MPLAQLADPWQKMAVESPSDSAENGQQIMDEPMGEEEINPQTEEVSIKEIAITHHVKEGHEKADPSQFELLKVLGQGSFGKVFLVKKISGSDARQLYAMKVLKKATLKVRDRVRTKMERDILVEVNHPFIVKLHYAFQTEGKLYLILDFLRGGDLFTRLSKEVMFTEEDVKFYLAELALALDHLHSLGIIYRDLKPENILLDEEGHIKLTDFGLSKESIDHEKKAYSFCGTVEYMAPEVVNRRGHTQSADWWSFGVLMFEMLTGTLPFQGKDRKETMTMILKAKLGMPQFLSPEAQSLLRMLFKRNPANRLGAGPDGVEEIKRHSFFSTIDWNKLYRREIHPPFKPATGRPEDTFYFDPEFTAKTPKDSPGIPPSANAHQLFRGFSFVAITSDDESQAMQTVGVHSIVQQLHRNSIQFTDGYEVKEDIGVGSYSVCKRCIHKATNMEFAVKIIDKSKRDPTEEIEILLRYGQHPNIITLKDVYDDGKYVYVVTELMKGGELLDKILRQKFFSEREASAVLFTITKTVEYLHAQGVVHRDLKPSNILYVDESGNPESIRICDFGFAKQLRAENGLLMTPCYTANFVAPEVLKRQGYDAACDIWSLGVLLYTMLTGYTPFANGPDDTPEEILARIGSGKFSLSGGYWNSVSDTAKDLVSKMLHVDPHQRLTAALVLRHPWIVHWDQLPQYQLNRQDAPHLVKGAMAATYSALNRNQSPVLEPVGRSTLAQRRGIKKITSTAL
The target in assay [4] is Serine/threonine-protein kinase PAK 4 (Homo sapiens, UniProt O96013). The assay is described as follows: Selectivity interaction (Kinase panel (DSF assay)) EUB0001559a PAK4. For orientation: DSF heats the sample and reads unfolding from a dye or from intrinsic fluorescence.
Chain of Serine/threonine-protein kinase PAK 4 (O96013 whole entry, looked up): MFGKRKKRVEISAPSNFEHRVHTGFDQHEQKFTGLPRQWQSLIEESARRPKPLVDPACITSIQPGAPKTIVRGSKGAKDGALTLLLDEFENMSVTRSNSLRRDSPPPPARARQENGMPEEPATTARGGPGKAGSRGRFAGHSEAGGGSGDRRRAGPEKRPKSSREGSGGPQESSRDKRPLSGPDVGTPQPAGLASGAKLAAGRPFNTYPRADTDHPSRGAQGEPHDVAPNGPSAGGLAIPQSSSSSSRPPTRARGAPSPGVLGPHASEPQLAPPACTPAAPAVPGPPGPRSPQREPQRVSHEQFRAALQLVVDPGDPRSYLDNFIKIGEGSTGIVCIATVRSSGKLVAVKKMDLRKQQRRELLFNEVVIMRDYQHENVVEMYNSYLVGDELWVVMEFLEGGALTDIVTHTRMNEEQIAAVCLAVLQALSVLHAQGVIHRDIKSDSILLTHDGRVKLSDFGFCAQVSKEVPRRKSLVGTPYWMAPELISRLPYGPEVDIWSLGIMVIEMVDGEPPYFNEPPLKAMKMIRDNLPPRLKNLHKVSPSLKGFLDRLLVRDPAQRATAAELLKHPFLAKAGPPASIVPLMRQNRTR
The target of assay [5] is T2, Sphingosine kinase 2 (Homo sapiens) (UniProt Q9NRA0).
T2 sequence (whole entry): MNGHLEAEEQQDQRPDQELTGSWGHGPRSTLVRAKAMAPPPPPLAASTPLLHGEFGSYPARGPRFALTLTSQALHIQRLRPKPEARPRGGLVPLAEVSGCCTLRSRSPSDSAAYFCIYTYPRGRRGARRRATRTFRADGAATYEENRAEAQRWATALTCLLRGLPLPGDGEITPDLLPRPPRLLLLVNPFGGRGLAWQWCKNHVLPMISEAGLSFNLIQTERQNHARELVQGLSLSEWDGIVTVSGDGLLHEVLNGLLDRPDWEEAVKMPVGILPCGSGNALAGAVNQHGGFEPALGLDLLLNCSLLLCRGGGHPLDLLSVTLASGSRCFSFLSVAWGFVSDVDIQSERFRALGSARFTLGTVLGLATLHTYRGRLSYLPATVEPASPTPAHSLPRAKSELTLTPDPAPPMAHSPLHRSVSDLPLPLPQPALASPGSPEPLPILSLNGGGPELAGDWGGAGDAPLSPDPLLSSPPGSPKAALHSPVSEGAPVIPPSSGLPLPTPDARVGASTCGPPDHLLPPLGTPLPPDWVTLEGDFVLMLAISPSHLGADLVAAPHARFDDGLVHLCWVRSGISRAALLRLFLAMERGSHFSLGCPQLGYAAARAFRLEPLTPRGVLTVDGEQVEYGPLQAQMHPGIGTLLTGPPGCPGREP
The assay is described as follows: Selectivity interaction (Kinase panel (literature)) EUB0001199aCl SPHK2. Conditions: at 1 µM.

Assay [6] addresses BDNF/NT-3 growth factors receptor (Homo sapiens) (UniProt Q16620). Briefly: Selectivity interaction (ProQinase) EUB0000171b NTRK2.
The target of assay [7] is Receptor-type tyrosine-protein kinase FLT3 (Homo sapiens) (UniProt P36888). The assay is described as follows: Selectivity interaction (Millipore kinase profiler) EUB0000124b FLT3. Conditions: at 10 µM.
Chain of Receptor-type tyrosine-protein kinase FLT3 (Homo sapiens) (P36888 whole entry): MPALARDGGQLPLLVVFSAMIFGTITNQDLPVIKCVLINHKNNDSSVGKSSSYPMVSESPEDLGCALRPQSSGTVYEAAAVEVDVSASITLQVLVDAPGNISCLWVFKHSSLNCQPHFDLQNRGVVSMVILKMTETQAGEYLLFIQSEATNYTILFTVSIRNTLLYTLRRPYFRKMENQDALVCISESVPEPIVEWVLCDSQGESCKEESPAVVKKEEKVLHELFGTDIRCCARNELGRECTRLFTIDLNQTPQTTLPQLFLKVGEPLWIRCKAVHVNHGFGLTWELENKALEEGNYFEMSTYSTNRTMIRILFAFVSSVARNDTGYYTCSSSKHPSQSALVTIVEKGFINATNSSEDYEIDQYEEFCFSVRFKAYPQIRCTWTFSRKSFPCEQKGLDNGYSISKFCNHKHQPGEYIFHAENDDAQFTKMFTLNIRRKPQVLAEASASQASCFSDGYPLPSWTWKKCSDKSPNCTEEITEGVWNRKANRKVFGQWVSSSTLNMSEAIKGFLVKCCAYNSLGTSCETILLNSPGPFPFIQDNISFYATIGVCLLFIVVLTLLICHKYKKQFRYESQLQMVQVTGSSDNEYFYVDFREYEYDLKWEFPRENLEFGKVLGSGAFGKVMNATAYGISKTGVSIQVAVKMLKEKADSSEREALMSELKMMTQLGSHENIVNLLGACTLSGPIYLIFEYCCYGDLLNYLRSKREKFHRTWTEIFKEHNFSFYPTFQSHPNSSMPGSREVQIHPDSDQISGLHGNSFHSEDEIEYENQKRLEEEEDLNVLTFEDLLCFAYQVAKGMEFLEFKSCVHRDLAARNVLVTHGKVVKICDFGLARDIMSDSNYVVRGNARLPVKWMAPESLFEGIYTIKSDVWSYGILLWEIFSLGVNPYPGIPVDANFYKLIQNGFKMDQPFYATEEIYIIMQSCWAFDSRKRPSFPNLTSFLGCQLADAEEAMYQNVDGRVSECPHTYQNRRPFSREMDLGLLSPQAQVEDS
The target in assay [8] is Insulin receptor-related protein (Homo sapiens) (UniProt P14616). The assay is described as follows: Selectivity interaction (KinomeScan (DiscoverX)) EUB0000229b INSRR. The following applies: at 10 µM.

Structures are written as SMILES.

Chain of BDNF/NT-3 growth factors receptor (Homo sapiens) (Q16620 32-822 limits assumed): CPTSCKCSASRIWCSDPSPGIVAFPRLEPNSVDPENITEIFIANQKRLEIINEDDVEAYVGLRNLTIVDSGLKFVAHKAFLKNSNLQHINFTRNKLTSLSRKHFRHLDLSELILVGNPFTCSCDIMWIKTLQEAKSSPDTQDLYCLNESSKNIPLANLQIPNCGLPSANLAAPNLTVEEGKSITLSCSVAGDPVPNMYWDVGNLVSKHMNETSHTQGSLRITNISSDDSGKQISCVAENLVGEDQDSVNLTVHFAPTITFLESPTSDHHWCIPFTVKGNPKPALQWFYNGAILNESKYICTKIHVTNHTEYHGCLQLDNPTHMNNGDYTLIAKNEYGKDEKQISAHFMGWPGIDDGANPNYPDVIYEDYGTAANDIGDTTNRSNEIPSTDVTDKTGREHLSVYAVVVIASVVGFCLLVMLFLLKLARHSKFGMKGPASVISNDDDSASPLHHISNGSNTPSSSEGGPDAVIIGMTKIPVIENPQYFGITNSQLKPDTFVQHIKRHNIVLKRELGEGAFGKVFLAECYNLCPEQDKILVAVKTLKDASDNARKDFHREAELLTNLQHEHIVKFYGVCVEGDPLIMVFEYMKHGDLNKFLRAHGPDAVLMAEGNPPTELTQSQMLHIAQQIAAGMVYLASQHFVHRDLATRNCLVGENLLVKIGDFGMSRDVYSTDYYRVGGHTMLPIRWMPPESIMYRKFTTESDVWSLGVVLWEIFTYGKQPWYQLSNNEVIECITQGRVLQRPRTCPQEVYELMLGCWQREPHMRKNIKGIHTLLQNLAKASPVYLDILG
Chain of Insulin-like growth factor 1 receptor (P08069 31-736 limits assumed): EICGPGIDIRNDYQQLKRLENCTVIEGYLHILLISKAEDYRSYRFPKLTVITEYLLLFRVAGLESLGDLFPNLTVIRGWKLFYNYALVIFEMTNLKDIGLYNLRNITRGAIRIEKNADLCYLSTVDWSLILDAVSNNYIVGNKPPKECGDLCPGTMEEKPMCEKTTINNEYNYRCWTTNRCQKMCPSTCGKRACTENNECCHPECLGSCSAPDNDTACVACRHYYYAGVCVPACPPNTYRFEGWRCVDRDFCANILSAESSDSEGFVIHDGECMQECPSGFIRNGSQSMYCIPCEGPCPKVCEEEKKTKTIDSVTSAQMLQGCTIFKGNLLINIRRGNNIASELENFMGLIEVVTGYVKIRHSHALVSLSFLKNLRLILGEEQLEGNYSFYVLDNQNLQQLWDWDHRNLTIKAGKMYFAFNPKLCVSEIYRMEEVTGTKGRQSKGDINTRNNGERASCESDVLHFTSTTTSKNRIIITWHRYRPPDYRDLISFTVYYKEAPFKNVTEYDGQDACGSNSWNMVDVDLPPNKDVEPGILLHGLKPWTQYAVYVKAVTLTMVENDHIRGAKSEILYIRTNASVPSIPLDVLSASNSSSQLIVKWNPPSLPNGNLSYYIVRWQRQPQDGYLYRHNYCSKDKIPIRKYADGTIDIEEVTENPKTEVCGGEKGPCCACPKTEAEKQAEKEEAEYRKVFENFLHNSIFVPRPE
Chain of Insulin-like growth factor 1 receptor (P08069 741-1367 limits assumed): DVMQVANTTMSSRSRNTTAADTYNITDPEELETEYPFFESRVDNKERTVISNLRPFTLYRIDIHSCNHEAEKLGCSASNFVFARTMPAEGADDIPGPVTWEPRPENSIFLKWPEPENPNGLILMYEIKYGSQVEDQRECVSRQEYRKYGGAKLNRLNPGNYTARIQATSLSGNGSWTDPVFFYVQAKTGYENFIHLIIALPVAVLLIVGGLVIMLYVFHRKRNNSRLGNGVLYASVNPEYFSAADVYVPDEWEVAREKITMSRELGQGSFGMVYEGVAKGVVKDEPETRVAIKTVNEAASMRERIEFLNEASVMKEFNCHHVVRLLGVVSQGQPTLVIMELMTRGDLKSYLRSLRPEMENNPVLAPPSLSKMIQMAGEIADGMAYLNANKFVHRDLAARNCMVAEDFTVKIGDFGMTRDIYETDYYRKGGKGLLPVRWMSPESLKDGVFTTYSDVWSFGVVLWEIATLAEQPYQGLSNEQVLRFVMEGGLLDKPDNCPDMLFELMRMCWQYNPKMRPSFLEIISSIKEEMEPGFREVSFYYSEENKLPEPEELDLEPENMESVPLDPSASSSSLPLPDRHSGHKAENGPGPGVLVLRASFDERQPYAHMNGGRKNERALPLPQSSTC

As for `Cc1cc(F)c(C(=O)Nc2cccc(-c3nncn3C(C)C)n2)cc1-n1cnc(C2CC2)c1`, the % of control in assay [1] was found to be 100%.
For the compound `Cc1cc([C@@H](C)Nc2ccccc2C(=O)O)c2nc(N3CCOCC3)cc(=O)n2c1` [AZD-6482], the % of control in assay [2] was found to be 100%; in assay [3], 91%.
The compound `CN(C(=O)c1cnn2cccnc12)c1cc2c(cc1N1CCOCC1)C(=O)N(C[C@@H](F)C(C)(C)O)C2` yielded a dTM in assay [4] of 0.4 K.
Take `CN1Cc2nccc(-c3cn(C)nc3-c3ccc(F)cc3)c2C1=O`: in assay [5], the % of inhibition is -7%.
With `C=CC(=O)Nc1cccc(C(=O)Nc2ccc(Nc3cc(-c4[nH]c(SC)nc4C)ccn3)cc2)c1`, the % of control in assay [6] (at 1 µM) came out at 89%; in assay [6] (at 5 µM) it was 81%.
Compound `CC(=O)Nc1cccc(-n2c(=O)n(C3CC3)c(=O)c3c(Nc4ccc(I)cc4F)n(C)c(=O)c(C)c32)c1` displayed a % of control in assay [7] of 107%.
As for `COc1cc(N(C)c2ccnc3ccc(C(F)(F)F)cc23)cc(OC)c1OC`, in assay [8], the % binding was determined as 76%.

The record behind these values is ChEMBL document CHEMBL5465560, “Selectivity Literature for EUbOPEN Chemogenomic Library” (2024).
